pKi: −log10 of the molar value.
Key:
[1] = target: T1, DHP (PN-200 110) binding sites in rats' heart (Rattus norvegicus, UniProt P22002); experiment: Binding affinity to DHP (PN 200-110) binding sites in rats' heart; details: PN 200-110 (DHP) binding sites
T1 construct: from tissue; host or cells: rat heart
Procedure: (§1) The binding affinities to PN 200-110 binding sites in rats' brains or rats' hearts are determined according to Rampe, D. R., Rutledge, A., Janis, R. A., Triggle, D. J.: Can. Journ. Physiol. Pharmacol. 65, (1987) 1452.
(§2) This selectivity exceeds that of the known cerebrally active Ca^2+-antagonistic dihydropyridines nimodipine and nicardipine. This is seen e.g. in the comparison of the binding affinities to DHP (PN-200 110) binding sites in rats' brain and rats' heart [cf. Rampe, D. R., Rutledge, A., Janis, R. A., Triggle, D. J., Can. Journ. Physiol. Pharmacol. 65 (1987), 1452].

[2] = tested on: DHP (PN-200 110) binding sites in rats' brain; experiment: Binding affinity to DHP (PN 200-110) binding sites in rats' brain; design: species or system rat; details: comparison of binding affinities rats' brain vs rats' heart (Ki heart / Ki brain)
Procedure: as §1, §2

T1 sequence (P22002 whole entry, other chains not shown): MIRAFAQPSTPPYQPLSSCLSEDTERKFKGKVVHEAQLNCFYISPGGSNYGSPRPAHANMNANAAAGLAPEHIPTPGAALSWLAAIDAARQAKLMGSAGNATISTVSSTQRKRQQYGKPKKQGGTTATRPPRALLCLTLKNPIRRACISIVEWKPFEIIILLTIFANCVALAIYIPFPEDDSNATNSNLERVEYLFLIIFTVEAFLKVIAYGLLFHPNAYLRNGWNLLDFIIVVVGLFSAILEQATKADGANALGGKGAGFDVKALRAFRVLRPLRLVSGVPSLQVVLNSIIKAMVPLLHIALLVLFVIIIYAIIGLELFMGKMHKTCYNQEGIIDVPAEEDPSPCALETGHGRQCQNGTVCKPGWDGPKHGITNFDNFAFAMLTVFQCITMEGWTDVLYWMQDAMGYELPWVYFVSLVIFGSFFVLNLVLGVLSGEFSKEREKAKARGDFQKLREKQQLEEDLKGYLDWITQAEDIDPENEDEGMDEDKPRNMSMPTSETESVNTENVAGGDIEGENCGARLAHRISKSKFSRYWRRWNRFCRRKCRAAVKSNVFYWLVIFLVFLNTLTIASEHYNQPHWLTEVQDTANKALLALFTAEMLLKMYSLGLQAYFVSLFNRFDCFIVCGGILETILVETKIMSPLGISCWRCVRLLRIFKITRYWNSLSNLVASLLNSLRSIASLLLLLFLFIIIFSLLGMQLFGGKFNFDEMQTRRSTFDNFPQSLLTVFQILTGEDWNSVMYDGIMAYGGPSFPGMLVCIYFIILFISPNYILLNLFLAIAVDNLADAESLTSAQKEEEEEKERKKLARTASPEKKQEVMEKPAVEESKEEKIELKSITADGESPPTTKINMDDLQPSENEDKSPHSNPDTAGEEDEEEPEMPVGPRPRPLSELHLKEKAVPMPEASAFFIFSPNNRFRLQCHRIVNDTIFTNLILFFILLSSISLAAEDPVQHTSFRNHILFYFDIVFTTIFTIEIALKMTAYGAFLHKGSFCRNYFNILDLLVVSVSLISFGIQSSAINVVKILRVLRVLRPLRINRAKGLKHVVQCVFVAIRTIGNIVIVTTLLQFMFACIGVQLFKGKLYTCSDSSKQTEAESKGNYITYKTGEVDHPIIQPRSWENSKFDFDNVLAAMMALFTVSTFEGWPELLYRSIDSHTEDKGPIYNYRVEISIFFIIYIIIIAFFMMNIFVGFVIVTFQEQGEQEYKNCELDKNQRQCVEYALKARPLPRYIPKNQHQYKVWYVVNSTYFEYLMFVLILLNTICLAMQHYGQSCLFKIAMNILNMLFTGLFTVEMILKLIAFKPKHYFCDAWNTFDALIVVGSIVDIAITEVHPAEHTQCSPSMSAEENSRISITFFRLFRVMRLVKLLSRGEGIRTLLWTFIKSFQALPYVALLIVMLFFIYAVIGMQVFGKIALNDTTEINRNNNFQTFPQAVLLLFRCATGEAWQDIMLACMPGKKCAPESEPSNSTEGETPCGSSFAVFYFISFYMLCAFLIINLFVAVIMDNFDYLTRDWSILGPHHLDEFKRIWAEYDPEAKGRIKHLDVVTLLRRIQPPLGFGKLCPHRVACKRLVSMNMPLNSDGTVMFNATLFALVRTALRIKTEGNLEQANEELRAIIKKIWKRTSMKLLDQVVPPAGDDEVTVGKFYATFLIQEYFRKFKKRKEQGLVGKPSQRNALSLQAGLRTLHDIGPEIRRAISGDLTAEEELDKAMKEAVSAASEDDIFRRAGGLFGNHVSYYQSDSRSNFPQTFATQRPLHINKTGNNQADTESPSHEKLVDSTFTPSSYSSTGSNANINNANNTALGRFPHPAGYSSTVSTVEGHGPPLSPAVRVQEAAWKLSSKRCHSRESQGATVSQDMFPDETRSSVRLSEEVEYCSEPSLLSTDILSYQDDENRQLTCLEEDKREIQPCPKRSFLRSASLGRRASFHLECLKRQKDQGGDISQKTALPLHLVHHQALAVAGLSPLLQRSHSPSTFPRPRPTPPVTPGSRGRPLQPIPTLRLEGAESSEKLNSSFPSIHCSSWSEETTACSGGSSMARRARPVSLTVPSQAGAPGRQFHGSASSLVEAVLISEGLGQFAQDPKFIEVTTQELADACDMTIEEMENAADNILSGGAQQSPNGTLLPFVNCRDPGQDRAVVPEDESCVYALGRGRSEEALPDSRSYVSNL
T1 sequence (P54290 25-944 partner limits assumed, other chains not shown): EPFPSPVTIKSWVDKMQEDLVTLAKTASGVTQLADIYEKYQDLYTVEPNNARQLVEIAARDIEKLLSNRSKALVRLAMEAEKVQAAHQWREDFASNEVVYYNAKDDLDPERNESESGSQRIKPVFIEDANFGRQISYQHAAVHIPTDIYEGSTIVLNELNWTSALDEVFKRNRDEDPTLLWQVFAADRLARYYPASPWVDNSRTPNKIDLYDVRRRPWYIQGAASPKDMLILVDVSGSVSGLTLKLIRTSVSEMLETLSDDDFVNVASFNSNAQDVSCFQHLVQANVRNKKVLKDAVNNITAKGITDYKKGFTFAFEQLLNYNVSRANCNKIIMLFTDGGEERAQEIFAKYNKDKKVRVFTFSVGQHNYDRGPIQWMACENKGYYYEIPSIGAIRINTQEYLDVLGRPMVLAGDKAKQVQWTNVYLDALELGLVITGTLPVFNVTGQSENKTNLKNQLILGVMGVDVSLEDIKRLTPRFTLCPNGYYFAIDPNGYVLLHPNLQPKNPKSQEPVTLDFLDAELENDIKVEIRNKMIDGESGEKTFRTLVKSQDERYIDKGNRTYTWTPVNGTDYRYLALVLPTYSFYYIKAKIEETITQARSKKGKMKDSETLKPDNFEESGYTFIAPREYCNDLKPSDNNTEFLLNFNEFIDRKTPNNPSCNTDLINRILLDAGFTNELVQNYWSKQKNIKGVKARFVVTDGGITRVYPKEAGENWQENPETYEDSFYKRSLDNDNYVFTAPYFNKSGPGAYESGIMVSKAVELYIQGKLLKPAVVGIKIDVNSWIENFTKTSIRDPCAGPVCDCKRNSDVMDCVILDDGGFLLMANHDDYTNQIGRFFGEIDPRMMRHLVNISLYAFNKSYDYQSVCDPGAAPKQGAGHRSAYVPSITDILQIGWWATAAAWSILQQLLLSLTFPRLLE
T1 sequence (P54290 945-1091 partner limits assumed, other chains not shown): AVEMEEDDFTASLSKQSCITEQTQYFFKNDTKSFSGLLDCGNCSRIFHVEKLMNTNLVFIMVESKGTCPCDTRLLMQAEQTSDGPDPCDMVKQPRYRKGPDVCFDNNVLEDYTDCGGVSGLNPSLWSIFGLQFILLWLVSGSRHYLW

SMILES	melting point [°C]	pKi [1]	Selectivity [2]
COCCOC(=O)C1=C(C)NC(C)=C(C(=O)OC(C)C)C1c1c(F)cccc1F (racemic) [Example 6, (±) isopropyl 2-methoxyethyl 4-(2,6-difluorophenyl)-1,4-dihydro-2,6-dimethylpyridine-3,5-dicarboxylate]	119 to 120	–	–
COCCOC(=O)C1=C(C)NC(C)=C(C(=O)OC2CCCC2)C1c1cccc(Cl)c1C#N (racemic) [Example 46, (±) cyclopentyl 2-methoxyethyl 4-(2-cyano-3-chlorophenyl)-1,4-dihydro-2,6-dimethylpyridine-3,5-dicarboxylate]	128 to 130	–	–
COCCOC(=O)C1=C(C)NC(C)=C(C(=O)OC)C1c1cccc(C(F)(F)F)c1F (racemic) [Example 39, (±) 2-methoxyethyl methyl 4-(2-fluoro-3-trifluoromethylphenyl)-1,4-dihydro-2,6-dimethylpyridine-3,5-dicarboxylate]	128	–	–
COCCOC(=O)C1=C(C)NC(C)=C(C(=O)OC2CCCC2)C1c1cccc(C#N)c1Cl (racemic) [Example 30, (±) cyclopentyl 2-methoxyethyl 4-(2-chloro-3-cyanophenyl)-1,4-dihydro-2,6-dimethylpyridine-3,5-dicarboxylate]	119 to 120	8.10	4.7
COCCOC(=O)C1=C(C)NC(C)=C(C(=O)OC(C)C)C1c1c(F)cccc1Cl (racemic) [Example 3, (±) isopropyl 2-methoxyethyl 4-(2-chloro-6-fluorophenyl)-1,4-dihydro-2,6-dimethylpyridine-3,5-dicarboxylate]	57 to 59	–	–
COCCOC(=O)C1=C(C)NC(C)=C(C(=O)OC(C)C)C1c1cccc(F)c1F (racemic) [Example 9, (±) isopropyl 2-methoxyethyl 4-(2,3-difluorophenyl)-1,4-dihydro-2,6-dimethylpyridine-3,5-dicarboxylate]	135 to 136	–	–
COCCOC(=O)C1=C(C)NC(C)=C(C(=O)OC(C)(C)C)C1c1cccc(C#N)c1 (racemic) [Example 33, (±) tert-butyl 2-methoxyethyl 4-(3-cyanophenyl)-1,4-dihydro-2,6-dimethylpyridine-3,5-dicarboxylate]	108 to 109	8.10	2.2
COCCOC(=O)C1=C(C)NC(C)=C(C(=O)OC(C)C)C1c1cccc(Cl)c1C#N (racemic) [Example 15, (±) isopropyl 2-methoxyethyl 4-(3-chloro-2-cyanophenyl)-1,4-dihydro-2,6-dimethylpyridine-3,5-dicarboxylate]	–	7.95	5.7
COCCOC(=O)C1=C(C)NC(C)=C(C(=O)OC(C)C)C1c1cccc(C(F)(F)F)c1F (racemic) [Example 27, (±) isopropyl 2-methoxyethyl 4-(2-fluoro-3-trifluoromethylphenyl)-1,4-dihydro-2,6-dimethylpyridine-3,5-dicarboxylate]	140 to 142	–	–
COCCOC(=O)C1=C(C)NC(C)=C(C(=O)OC(C)C)C1c1cc(Cl)ccc1Cl (racemic) [Example 12, (±) isopropyl 2-methoxyethyl 4-(2,5-dichlorophenyl)-1,4-dihydro-2,6-dimethylpyridine-3,5-dicarboxylate]	79 to 89	7.14	10
COC(=O)C1=C(C)NC(C)=C(C(=O)OCCN(C)Cc2ccccc2)C1c1cccc([N+](=O)[O-])c1 (centres unmarked) [Nicardipine, nicardipine, reference compound]	–	7.85	–
COCCOC(=O)C1=C(C)NC(C)=C(C(=O)OC(C)C)C1c1ccc(F)c(F)c1 (racemic) [Example 18]	78	7.55	3.4
COCCOC(=O)C1=C(C)NC(C)=C(C(=O)OC2CCCC2)C1c1cccc(C(F)(F)F)c1F (racemic) [Example 36, (±) cyclopentyl 2-methoxyethyl 4-(2-fluoro-3-trifluoromethylphenyl)-1,4-dihydro-2,6-dimethylpyridine-3,5-dicarboxylate]	105	–	–
COCCOC(=O)C1=C(C)NC(C)=C(C(=O)OC(C)C)C1c1cccc([N+](=O)[O-])c1 (centres unmarked) [Nimodipine, nimodipine, reference compound]	–	8.34	–

From patent publication US6630494B2, “Phenyl-substituted 1,4-dihydropyridines” (Bayer Aktiengesellschaft, priority 1983, dated 2003)
